# Laboratory results: patent US12661355B2, “Compounds and methods for inducing UCP1 expression” (The Regents of the University of California, priority 2020, dated 2026)
# Key:
# [1] = biological target: T1, AKAP6 (Mus musculus, UniProt E9Q9K8); experiment: CETSA in brown adipocytes, AKAP6; assay type: binding; conditions: 10 μM for 8 h
# T1 construct: endogenous in cells; host or cells: immortalized mouse brown adipocytes
# Method: (§1) CETSA assays were performed according to known methods. Briefly, differentiated brown adipocytes (one 10 cm dish per treatment) were treated with vehicle or compounds, trypsinized, counted, and re-suspended in approximately 450 μl PBS containing protease inhibitors (volumes were adjusted to have the same number of cells in each treatment). For each sample, 18 μl was distributed into each of 7 PCR tubes. Samples were heated using a thermocycler with a temperature gradient (iCycler, Biorad) for 3 min, followed by 3 min at room temperature, and then snap-frozen in liquid N2. After two freeze-thaw cycles, samples were centrifuged at 20,000 g for 15 min at 4° C., and the supernatants were transferred to another set of tubes. Proteins were analyzed by immunoblotting.
# (§2) The potential interaction of Z160 with PKA subunits and AKAPs was assessed first by identifying which PKA subunits and AKAP isoforms are normally present in BAT. […] To perform the CETSA assays, cultured brown adipocytes were incubated with 10 μM Z160 for 8 h, after which the thermal shift was analyzed by Western blot.
# [2] = biological target: T2, AKAP1 (Mus musculus, UniProt O08715); experiment: Western blot of mitochondria-associated proteins, AKAP1; assay type: cell-based; conditions: brown adipocytes, 10 μM, after 6-8 h
# T2 construct: from tissue; host or cells: mouse brown adipose tissue (BAT) lysate; also mouse brown adipocyte extracts
# T2 sequence (O08715 30-857): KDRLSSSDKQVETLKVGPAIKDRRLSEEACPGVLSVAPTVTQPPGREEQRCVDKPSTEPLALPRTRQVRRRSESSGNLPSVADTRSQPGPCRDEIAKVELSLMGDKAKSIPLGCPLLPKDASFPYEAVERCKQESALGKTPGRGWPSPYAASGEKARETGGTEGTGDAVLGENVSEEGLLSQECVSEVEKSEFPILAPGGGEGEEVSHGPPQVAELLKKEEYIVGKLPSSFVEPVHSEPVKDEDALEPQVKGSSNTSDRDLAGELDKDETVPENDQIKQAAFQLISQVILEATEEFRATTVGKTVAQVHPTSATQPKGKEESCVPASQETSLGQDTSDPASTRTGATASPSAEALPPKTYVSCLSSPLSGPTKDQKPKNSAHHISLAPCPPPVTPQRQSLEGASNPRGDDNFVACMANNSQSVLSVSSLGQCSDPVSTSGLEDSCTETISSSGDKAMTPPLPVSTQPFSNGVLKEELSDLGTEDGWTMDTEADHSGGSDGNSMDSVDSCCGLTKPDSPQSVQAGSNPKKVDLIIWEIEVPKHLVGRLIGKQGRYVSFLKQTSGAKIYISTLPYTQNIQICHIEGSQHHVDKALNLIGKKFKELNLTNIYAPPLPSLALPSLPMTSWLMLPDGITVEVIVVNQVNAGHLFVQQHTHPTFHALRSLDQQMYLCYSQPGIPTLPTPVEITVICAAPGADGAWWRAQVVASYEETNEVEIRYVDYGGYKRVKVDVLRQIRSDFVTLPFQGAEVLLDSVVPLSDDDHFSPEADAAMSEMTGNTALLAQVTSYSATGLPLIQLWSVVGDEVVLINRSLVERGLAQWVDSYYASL
# Method: (§3) Cells and tissues were lysed in 10 mM Tris pH 7.5, 10 mM NaCl, 1 mM EDTA and 0.5% Triton X-100, supplemented with complete mini EDTA-free protease (Roche Diagnostics) and phosphatase (Cocktail 2 and 3, Sigma) inhibitors, followed by 10 second sonication. For analysis of mitochondrial proteins, mitochondria were isolated from cells by dual centrifugation, as described. Protein lysates were separated by SDS-PAGE and transferred to a nitrocellulose membrane. Transfer was confirmed by Ponceau staining (P7170, Sigma). After blocking in 5% milk, 0.1% Tween-20 in Tris-buffered saline (TBS), primary antibody was incubated overnight at 4° C. in 5% bovine serum albumin and 0.1% Tween-20 in TBS. Primary antibodies against ACTB (GTX109639, GeneTex), AKAP1 (5203, Cell Signaling), AKAP6 (07-087, Millipore), Cytochrome c (136F3, Cell Signaling), electron transport chain protein complexes (Total OXPHOS rodent WB antibody cocktail ab110413, Abcam), GAPDH (GTX100118, Genetex), active p38 MAPK (V1211, Promega), total p38 MAPK (8690, Cell Signaling), PGC1α (AB3242, Millipore), phospho-(Ser/Thr) PKA substrate (9621, Cell Signaling), PKA C-α (4782, Cell Signaling), PKA RII-β (ab75993, Abcam), and UCP1 (662045, Calbiochem) were used at 1:2000. […] Quantification using representative bands from the Ponceau staining was performed with ImageJ. […]
# [3] = biological target: T3, PKA subunits (C-α and RII-β) (Mus musculus, UniProt P05132+P31324); experiment: CETSA in brown adipocytes, PKA subunits; assay type: binding; conditions: 10 μM for 8 h
# T3 construct: endogenous in cells; host or cells: immortalized mouse brown adipocytes
# Method: as §1
# The PKA tetramer consists of two catalytic and two regulatory subunits. In the mouse, these are catalytic subunits C-α and C-β, and regulatory subunits RI and RII, each with α and β isoforms (RI-α, RI-β, RII-α, RII-β). […]
# as §2
# [4] = tested on: electron transport chain protein complexes; experiment: Western blot of electron transport chain protein complexes in isolated mitochondria; assay type: cell-based, mouse; conditions: overnight 10 μM
# Method: Cells and tissues were lysed in 10 mM Tris pH 7.5, 10 mM NaCl, 1 mM EDTA and 0.5% Triton X-100, supplemented with complete mini EDTA-free protease (Roche Diagnostics) and phosphatase (Cocktail 2 and 3, Sigma) inhibitors, followed by 10 second sonication. For analysis of mitochondrial proteins, mitochondria were isolated from cells by dual centrifugation, as described. Protein lysates were separated by SDS-PAGE and transferred to a nitrocellulose membrane. Transfer was confirmed by Ponceau staining (P7170, Sigma). After blocking in 5% milk, 0.1% Tween-20 in Tris-buffered saline (TBS), primary antibody was incubated overnight at 4° C. in 5% bovine serum albumin and 0.1% Tween-20 in TBS. Primary antibodies against ACTB (GTX109639, GeneTex), AKAP1 (5203, Cell Signaling), AKAP6 (07-087, Millipore), Cytochrome c (136F3, Cell Signaling), electron transport chain protein complexes (Total OXPHOS rodent WB antibody cocktail ab110413, Abcam), GAPDH (GTX100118, Genetex), active p38 MAPK (V1211, Promega), total p38 MAPK (8690, Cell Signaling), PGC1α (AB3242, Millipore), phospho-(Ser/Thr) PKA substrate (9621, Cell Signaling), PKA C-α (4782, Cell Signaling), PKA RII-β (ab75993, Abcam), and UCP1 (662045, Calbiochem) were used at 1:2000. […] Quantification using representative bands from the Ponceau staining was performed with ImageJ.
# [5] = biological target: T4, cGMP-dependent kinase 1 (PKG-1) (Mus musculus, UniProt P0C605); experiment: CETSA in brown adipocytes, PKG-1; assay type: binding; conditions: 10 μM for 8 h
# T4 construct: endogenous in cells; host or cells: immortalized mouse brown adipocytes
# T4 sequence (P0C605 whole entry): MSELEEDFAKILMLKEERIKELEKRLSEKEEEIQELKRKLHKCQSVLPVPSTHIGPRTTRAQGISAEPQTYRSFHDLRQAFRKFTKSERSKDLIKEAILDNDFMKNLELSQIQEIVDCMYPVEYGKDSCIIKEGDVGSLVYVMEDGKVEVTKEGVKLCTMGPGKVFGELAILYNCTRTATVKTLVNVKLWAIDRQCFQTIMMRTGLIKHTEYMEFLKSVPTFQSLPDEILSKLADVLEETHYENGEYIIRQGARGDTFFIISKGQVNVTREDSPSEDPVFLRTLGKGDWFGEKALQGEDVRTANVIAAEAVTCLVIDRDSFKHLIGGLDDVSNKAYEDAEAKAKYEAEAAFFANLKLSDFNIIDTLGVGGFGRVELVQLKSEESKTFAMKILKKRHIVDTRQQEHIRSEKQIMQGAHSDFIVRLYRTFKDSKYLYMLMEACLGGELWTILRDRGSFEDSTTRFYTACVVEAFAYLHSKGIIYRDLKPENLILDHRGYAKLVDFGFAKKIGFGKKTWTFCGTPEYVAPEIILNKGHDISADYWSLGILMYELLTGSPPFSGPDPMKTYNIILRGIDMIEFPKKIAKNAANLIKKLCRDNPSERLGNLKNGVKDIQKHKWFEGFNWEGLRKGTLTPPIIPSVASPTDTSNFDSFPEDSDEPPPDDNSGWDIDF
# Method: as §1, §2
# [6] = tested on: CYTC and GAPDH; experiment: Western blot of mitochondria-associated proteins, CYTC and GAPDH; assay type: cell-based, mouse; conditions: brown adipocytes, 10 μM
# Method: as §3
# T1 sequence (E9Q9K8 1-2307): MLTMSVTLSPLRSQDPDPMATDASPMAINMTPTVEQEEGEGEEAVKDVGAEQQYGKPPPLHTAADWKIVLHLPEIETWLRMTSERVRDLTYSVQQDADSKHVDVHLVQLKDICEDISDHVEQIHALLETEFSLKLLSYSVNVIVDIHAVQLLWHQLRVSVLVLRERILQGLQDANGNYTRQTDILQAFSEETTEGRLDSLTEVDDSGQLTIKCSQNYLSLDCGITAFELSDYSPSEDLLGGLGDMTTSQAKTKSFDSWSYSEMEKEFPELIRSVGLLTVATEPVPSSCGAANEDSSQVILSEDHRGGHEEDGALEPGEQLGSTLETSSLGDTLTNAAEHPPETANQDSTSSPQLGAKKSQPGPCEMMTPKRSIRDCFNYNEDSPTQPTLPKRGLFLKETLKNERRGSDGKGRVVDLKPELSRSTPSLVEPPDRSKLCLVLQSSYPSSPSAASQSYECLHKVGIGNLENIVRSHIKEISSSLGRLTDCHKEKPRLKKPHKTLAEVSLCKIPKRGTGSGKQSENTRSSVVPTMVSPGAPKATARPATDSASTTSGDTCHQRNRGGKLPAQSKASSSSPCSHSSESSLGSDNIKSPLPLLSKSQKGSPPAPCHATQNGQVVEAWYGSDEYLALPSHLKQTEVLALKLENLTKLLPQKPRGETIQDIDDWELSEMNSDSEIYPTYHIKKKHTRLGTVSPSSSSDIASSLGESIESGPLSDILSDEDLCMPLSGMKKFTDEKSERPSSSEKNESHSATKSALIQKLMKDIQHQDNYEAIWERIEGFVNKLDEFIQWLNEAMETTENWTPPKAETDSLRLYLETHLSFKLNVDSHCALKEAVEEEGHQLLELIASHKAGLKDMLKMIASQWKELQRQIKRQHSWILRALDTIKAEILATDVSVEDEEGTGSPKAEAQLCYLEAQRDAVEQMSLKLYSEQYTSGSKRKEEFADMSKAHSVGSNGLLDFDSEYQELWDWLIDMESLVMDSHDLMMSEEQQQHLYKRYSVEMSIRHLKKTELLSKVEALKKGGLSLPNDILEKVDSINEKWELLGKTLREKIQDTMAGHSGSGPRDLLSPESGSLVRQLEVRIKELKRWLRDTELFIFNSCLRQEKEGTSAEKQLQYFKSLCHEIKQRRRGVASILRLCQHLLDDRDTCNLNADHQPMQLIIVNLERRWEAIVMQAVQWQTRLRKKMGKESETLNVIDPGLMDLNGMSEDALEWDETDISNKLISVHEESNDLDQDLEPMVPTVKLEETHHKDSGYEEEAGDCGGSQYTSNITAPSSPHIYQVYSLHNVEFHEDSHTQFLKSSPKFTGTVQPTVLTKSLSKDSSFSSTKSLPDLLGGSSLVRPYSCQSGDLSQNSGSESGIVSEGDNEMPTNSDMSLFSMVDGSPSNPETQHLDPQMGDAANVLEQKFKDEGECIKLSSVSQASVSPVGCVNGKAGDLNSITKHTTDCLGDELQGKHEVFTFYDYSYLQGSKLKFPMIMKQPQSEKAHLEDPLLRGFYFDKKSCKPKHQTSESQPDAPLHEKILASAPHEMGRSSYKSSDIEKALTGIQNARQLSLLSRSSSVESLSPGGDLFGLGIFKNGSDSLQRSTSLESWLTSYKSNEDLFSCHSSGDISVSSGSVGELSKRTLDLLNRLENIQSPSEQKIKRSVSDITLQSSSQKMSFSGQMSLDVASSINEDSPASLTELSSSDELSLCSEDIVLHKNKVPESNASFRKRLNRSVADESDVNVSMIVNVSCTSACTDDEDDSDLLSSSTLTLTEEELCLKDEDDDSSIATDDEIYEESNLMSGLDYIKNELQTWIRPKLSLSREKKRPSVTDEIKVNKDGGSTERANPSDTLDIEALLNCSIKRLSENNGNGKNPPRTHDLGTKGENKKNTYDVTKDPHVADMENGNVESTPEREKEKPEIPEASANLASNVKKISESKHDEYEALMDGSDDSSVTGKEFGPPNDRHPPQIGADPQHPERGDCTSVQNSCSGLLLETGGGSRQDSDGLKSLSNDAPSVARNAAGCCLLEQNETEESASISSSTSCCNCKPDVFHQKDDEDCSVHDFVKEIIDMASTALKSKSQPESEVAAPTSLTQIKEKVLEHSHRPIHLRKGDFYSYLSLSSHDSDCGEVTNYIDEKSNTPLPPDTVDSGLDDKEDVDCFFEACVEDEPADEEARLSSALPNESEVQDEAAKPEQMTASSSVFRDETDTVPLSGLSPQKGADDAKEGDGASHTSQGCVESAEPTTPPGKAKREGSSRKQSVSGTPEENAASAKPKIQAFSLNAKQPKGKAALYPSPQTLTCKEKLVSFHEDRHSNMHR
structure (smiles),measurement,setting,value
COc1ccc(NC(=O)CSc2nc3ccccc3c(=O)[nH]2)c(OC)c1 [Z160],heat stability of AKAP6,[1],did not influence the heat stability
same,AKAP1 protein levels in the mitochondrial fraction,[2],increased
same,denaturation (thermal shift) of PKA subunits C-α and RII-β,[3],did not show differences in denaturation
same,mitochondrial complex protein abundance,[4],slight enhancement
same,heat stability of PKG-1,[5],did not influence the heat stability
same,levels of CYTC and GAPDH in the mitochondrial fraction,[6],not altered
